Laboratory results taken from publication PMC7587356, “High-Throughput Screening for Inhibitors of the SARS-CoV-2 Protease Using a FRET-Biosensor” (Molecules, 2020).
Counter-ions that a name gives are not always drawn. Like-named read-outs stand apart in the source and are kept apart here.

Biological target: SARS-CoV-2 3CLpro (Severe acute respiratory syndrome coronavirus 2, UniProt P0DTD1)
Assay: biochemical
Type: biochemical
Design: Replicate_1 / Replicate_2 / mean / mean (LOPAC_screen_w_protease): unit not given here
Settings: for inhibition at 5 µM: 4 h
[1] = sheet LOPAC_screen_w_protease, primary screen of LOPAC1280 at 5 µM with protease, mean of the two replicates, read-out: mean
[2] = sheet LOPAC_screen_w_protease, primary screen of LOPAC1280 at 5 µM with protease, replicate 1, read-out: Replicate_1
[3] = sheet LOPAC_screen_w_protease, primary screen of LOPAC1280 at 5 µM with protease, replicate 2, read-out: Replicate_2
[4] = sheet LOPAC_screen_w_protease, LOPAC1280 at 5 µM, mean of two replicates
[5] = sheet LOPAC_screen_w_protease, LOPAC1280 at 5 µM, replicate 1
[6] = sheet LOPAC_screen_w_protease, LOPAC1280 at 5 µM, replicate 2
[7] = sheet LOPAC_screen_w_protease, primary screen with protease, 5 µM, mean of two replicates, read-out: mean
[8] = sheet LOPAC_screen_w_protease, primary screen with protease, 5 µM, replicate 1, read-out: Replicate_1
[9] = sheet LOPAC_screen_w_protease, primary screen with protease, 5 µM, replicate 2, read-out: Replicate_2
[10] = LOPAC1280 primary screen with protease, 5 µM compound, replicate 1, read-out: Replicate_1 (LOPAC_screen_w_protease)
[11] = LOPAC1280 primary screen with protease, 5 µM compound, replicate 2, read-out: Replicate_2 (LOPAC_screen_w_protease)
[12] = LOPAC1280 primary screen with protease, 5 µM compound, mean of two replicates
[13] = sheet LOPAC_screen_w_protease, primary screen with protease, mean of two replicates, read-out: mean
[14] = sheet LOPAC_screen_w_protease, primary screen with protease, replicate 1, read-out: Replicate_1
[15] = sheet LOPAC_screen_w_protease, primary screen with protease, replicate 2, read-out: Replicate_2
[16] = sheet LOPAC_screen_w_protease, LOPAC1280 primary screen with protease, 5 µM compound, mean of the two replicates, read-out: mean
[17] = sheet LOPAC_screen_w_protease, LOPAC1280 primary screen with protease, 5 µM compound, replicate 1, read-out: Replicate_1
[18] = sheet LOPAC_screen_w_protease, LOPAC1280 primary screen with protease, 5 µM compound, replicate 2, read-out: Replicate_2
[19] = read-out: Replicate_1 (LOPAC_screen_w_protease)
[20] = read-out: Replicate_2 (LOPAC_screen_w_protease)
[21] = sheet LOPAC_screen_w_protease, LOPAC1280 primary screen with protease, 5 µM compound, mean of the two replicates
[22] = sheet LOPAC_screen_w_protease, LOPAC1280 primary screen with protease, 5 µM compound, replicate 1
[23] = sheet LOPAC_screen_w_protease, LOPAC1280 primary screen with protease, 5 µM compound, replicate 2
[24] = sheet LOPAC_screen_w_protease, LOPAC1280 primary screen at 5 µM, with protease, mean of the two replicates
[25] = sheet LOPAC_screen_w_protease, LOPAC1280 primary screen at 5 µM, with protease, replicate 1
[26] = sheet LOPAC_screen_w_protease, LOPAC1280 primary screen at 5 µM, with protease, replicate 2

`COc1cc([C@@H]2c3cc4c(cc3[C@H](O)[C@H]3COC(=O)[C@H]23)OCO4)cc(OC)c1OC` [Podophyllotoxin] was tested, and the inhibition at 5 µM (read-out: Replicate_1) was 3.42%, the inhibition at 5 µM (read-out: Replicate_2) was 4.17% and the inhibition at 5 µM (read-out: mean) was 3.8%.
Molecule `O=C(C1CCCCC1)N1CC(=O)N2CCc3ccccc3C2C1` (stereo not shown) [Praziquantel] has an inhibition at 5 µM [1] of 3.73%, an inhibition at 5 µM [2] of 3.31% and an inhibition at 5 µM [3] of 4.15%.
For `CC(=O)[C@H]1CC[C@H]2[C@@H]3CC=C4C[C@@H](OS(=O)(=O)[O-])CC[C@]4(C)[C@H]3CC[C@]12C.[Na+]` [Pregnenolone sulfate sodium], the mean [4] was 1.045, the Replicate_1 [5] was 0.04623 and the Replicate_2 [6] was 2.043.
`CCCNC(C)C(=O)Nc1ccccc1C` (stereo not shown) [Prilocaine hydrochloride] showed an inhibition at 5 µM [7] of 0.116%, an inhibition at 5 µM [8] of 0.518% and an inhibition at 5 µM [9] of -0.285%.
With `CCN(CC)CCOC(=O)c1ccc(N)cc1` [Procaine hydrochloride] the inhibition at 5 µM [10] was 1.06%, the inhibition at 5 µM [11] was 1.81% and the “mean (LOPAC_screen_w_protease)” value [12] was 1.433.
`CN1CCN(CCCN2c3ccccc3Sc3ccc(Cl)cc32)CC1` [Prochlorperazine dimaleate] showed an inhibition at 5 µM [13] of 2.43%, an inhibition at 5 µM [14] of 4.42% and an inhibition at 5 µM [15] of 0.439%.
`CC(=O)[C@H]1CC[C@H]2[C@@H]3CCC4=CC(=O)CC[C@]4(C)[C@H]3CC[C@]12C` [Progesterone] gave an inhibition at 5 µM [16] of 5.55%, an inhibition at 5 µM [17] of 3.58% and an inhibition at 5 µM [18] of 7.53%.
In the case of `CCCN(CCC)C(=O)C(CCC(=O)O)NC(=O)c1ccccc1` (stereo not shown) [Proglumide], the inhibition at 5 µM [16] is reported as 4.27%, the inhibition at 5 µM [17] is reported as 4.11% and the inhibition at 5 µM [18] is reported as 4.43%.
Work on `CN(C)CCCN1c2ccccc2Sc2ccccc21` [Promazine hydrochloride] yielded an inhibition at 5 µM [7] of -0.303%, an inhibition at 5 µM [8] of -0.0432% and an inhibition at 5 µM [9] of -0.563%.
`CC(CN1c2ccccc2Sc2ccccc21)N(C)C` (stereo not shown) [Promethazine hydrochloride] gave an inhibition at 5 µM [1] of 3.55%, an inhibition at 5 µM [2] of 1.74% and an inhibition at 5 µM [3] of 5.35%.
With `CCCNCC(O)COc1ccccc1C(=O)CCc1ccccc1` (stereo not shown) [Propafenone hydrochloride] the inhibition at 5 µM [1] was 3.27%, the inhibition at 5 µM [2] was 3.05% and the inhibition at 5 µM [3] was 3.48%.
`CC(C)[N+](C)(CCOC(=O)C1c2ccccc2Oc2ccccc21)C(C)C` [Propantheline bromide] was tested, and the inhibition at 5 µM [7] was 0.204%, the inhibition at 5 µM [8] was 0.838% and the inhibition at 5 µM [9] was -0.43%.
For `CCCn1cnc2c1c(=O)n(CCCCC(C)=O)c(=O)n2C` [Propentofylline], the inhibition at 5 µM (sheet LOPAC_screen_w_protease, LOPAC1280 at 5 µM, mean of two replicates, read-out: mean) was 1.26%, the inhibition at 5 µM (sheet LOPAC_screen_w_protease, LOPAC1280 at 5 µM, replicate 1, read-out: Replicate_1) was 2.2% and the inhibition at 5 µM (sheet LOPAC_screen_w_protease, LOPAC1280 at 5 µM, replicate 2, read-out: Replicate_2) was 0.327%.
`CCC(=O)c1ccc2c(c1)N(CCCN(C)C)c1ccccc1S2` [Propionylpromazine hydrochloride] was tested, and the inhibition at 5 µM [10] was 2.15%, the inhibition at 5 µM [11] was 0.621% and the “mean (LOPAC_screen_w_protease)” value [12] was 1.386.
`C=CC1=C(C)c2cc3[nH]c(cc4nc(cc5[nH]c(cc1n2)c(C)c5CCC(=O)O)C(CCC(=O)O)=C4C)c(C)c3C=C` [Protoporphyrin IX disodium] showed an inhibition at 5 µM (read-out: Replicate_1) of 2.66%, an inhibition at 5 µM (read-out: Replicate_2) of 2.42% and an inhibition at 5 µM (read-out: mean) of 2.54%.
For `CNCCCC1c2ccccc2C=Cc2ccccc21` [Protriptyline hydrochloride], the inhibition at 5 µM (read-out: Replicate_1) was 1.19%, the inhibition at 5 µM (read-out: Replicate_2) was -0.325% and the inhibition at 5 µM (read-out: mean) was 0.431%.
`CC(C)[C@H](CO)Nc1nc(Nc2cccc(Cl)c2)c2ncn(C(C)C)c2n1` [Purvalanol A] showed an inhibition at 5 µM [13] of 2.33%, an inhibition at 5 µM [14] of 2.6% and an inhibition at 5 µM [15] of 2.06%.
In the case of `NCCCCN` [Putrescine dihydrochloride], the “mean (LOPAC_screen_w_protease)” value is reported as 2.055, the inhibition at 5 µM [19] is reported as 4.37% and the inhibition at 5 µM [20] is reported as -0.258%.
`NC(=O)c1cnccn1` [Pyrazinecarboxamide] gave a mean [4] of 0.9233, a Replicate_1 [5] of 1.572 and a Replicate_2 [6] of 0.2741.
`CN(C)C(=O)Oc1ccc[n+](C)c1` [Pyridostigmine bromide] gave an inhibition at 5 µM [7] of 0.333%, an inhibition at 5 µM [8] of 1.4% and an inhibition at 5 µM [9] of -0.737%.
Molecule `COc1ccc(CN(CCN(C)C)c2ccccn2)cc1` [Pyrilamine maleate] has an inhibition at 5 µM [13] of 2.44%, an inhibition at 5 µM [14] of 1.24% and an inhibition at 5 µM [15] of 3.63%.
`C[C@@H]1C(=O)NC2=Nc3cccc(Cl)c3CN21` [Quazinone] gave an inhibition at 5 µM [16] of 4.1%, an inhibition at 5 µM [17] of 4.2% and an inhibition at 5 µM [18] of 4%.
`O=c1c(O)c(-c2ccc(O)c(O)c2)oc2cc(O)cc(O)c12` [Quercetin dihydrate] showed an inhibition at 5 µM [19] of 2.76% and an inhibition at 5 µM [20] of 1.18%.
With `CCCN1CCC[C@@H]2Cc3nc(N)ncc3C[C@H]21.Cl.Cl` [Quinelorane dihydrochloride] the mean [21] was 6.182, the Replicate_1 [22] was 6.527 and the Replicate_2 [23] was 5.838.
For `O=C(O)c1cccnc1C(=O)O` [Quinolinic acid], the inhibition at 5 µM (sheet LOPAC_screen_w_protease, LOPAC1280 primary screen at 5 µM, with protease, mean of the two replicates, read-out: mean) was 0.58%, the inhibition at 5 µM (sheet LOPAC_screen_w_protease, LOPAC1280 primary screen at 5 µM, with protease, replicate 1, read-out: Replicate_1) was -0.228% and the inhibition at 5 µM (sheet LOPAC_screen_w_protease, LOPAC1280 primary screen at 5 µM, with protease, replicate 2, read-out: Replicate_2) was 1.39%.
`O=C(O)/C=C\C(=O)O.O=C(O)/C=C\C(=O)O.c1ccc2nc(N3CCNCC3)ccc2c1` [Quipazine dimaleate] showed a mean [24] of 0.5004, a Replicate_1 [25] of 0.6596 and a Replicate_2 [26] of 0.3411.
Work on `O=C(O)/C=C\C(=O)O.O=[N+]([O-])c1ccc2nc(N3CCNCC3)ccc2c1` [Quipazine, 6-nitro-, maleate] yielded a mean [24] of 0.7082, a Replicate_1 [25] of 1.452 and a Replicate_2 [26] of -0.03606.
Work on `CN1CCN(c2ccc3ccccc3n2)CC1.O=C(O)/C=C\C(=O)O.O=C(O)/C=C\C(=O)O` [Quipazine, N-methyl-, dimaleate] yielded a mean [24] of 0.6078, a Replicate_1 [25] of 1.027 and a Replicate_2 [26] of 0.1891.
Molecule `CCCN1CCC[C@H](c2cccc(O)c2)C1.Cl` [R(+)-3PPP hydrochloride] has a mean [4] of 0.9121, a Replicate_1 [5] of 1.657 and a Replicate_2 [6] of 0.167.
With `Br.C=CCN1CCc2c(cc(O)c(O)c2Br)[C@@H](c2ccccc2)C1` [R(+)-6-Bromo-APB hydrobromide] the “mean (LOPAC screen with protease)” value (sheet LOPAC_screen_w_protease, primary screen at 5 µM, mean of two replicates) was 28.8024, the “Replicate_1 (LOPAC screen with protease)” value (sheet LOPAC_screen_w_protease, primary screen at 5 µM, replicate 1) was 26.2193 and the “Replicate_2 (LOPAC screen with protease)” value (sheet LOPAC_screen_w_protease, primary screen at 5 µM, replicate 2) was 31.3855.
In the case of `C[C@@]1(C2CCCC2)Cc2cc(OCC(=O)O)c(Cl)c(Cl)c2C1=O` [R(+)-IAA-94], the mean (sheet LOPAC_screen_w_protease, primary screen with protease, compound at 5 µM, mean of two replicates) is reported as 3.0784 and the Replicate_2 (sheet LOPAC_screen_w_protease, primary screen with protease, compound at 5 µM, replicate 2) is reported as 3.637.
`CN1CCc2cc(Cl)c(O)cc2[C@@H](c2ccccc2)C1.Cl` [R(+)-SCH-23390 hydrochloride] showed a mean (sheet LOPAC_screen_w_protease, primary screen of LOPAC1280 at 5 µM with protease, mean of the two replicates) of 3.494, a Replicate_1 (sheet LOPAC_screen_w_protease, primary screen of LOPAC1280 at 5 µM with protease, replicate 1) of 4.714 and a Replicate_2 (sheet LOPAC_screen_w_protease, primary screen of LOPAC1280 at 5 µM with protease, replicate 2) of 2.274.
`CCN(CC)C(=O)N[C@H]1C[C@@H]2c3cccc4[nH]cc(c34)C[C@H]2N(C)C1` [R(+)-Terguride] was tested, and the mean [24] was 0.4418, the Replicate_1 [25] was 0.9662 and the Replicate_2 [26] was -0.08256.
`CCCN(CCC)[C@@H]1CCc2c(F)ccc(O)c2C1.Cl` [R(+)-UH-301 hydrochloride] was tested, and the “mean (LOPAC_screen_w_protease)” value [12] was 1.335, the “Replicate_1 (LOPAC_screen_w_protease)” value (LOPAC1280 primary screen with protease, 5 µM compound, replicate 1) was 1.567 and the “Replicate_2 (LOPAC_screen_w_protease)” value (LOPAC1280 primary screen with protease, 5 µM compound, replicate 2) was 1.103.
`COc1ccc2c(c1O)-c1cccc3c1[C@@H](C2)N(C)CC3.Cl` [R(-)-Apocodeine hydrochloride] gave a mean [21] of 6.058, a Replicate_1 [22] of 6.597 and a Replicate_2 [23] of 5.52.
`COc1ccc(CCNC[C@H](O)c2ccc(O)cc2)cc1OC` [R(-)-Denopamine] showed a mean (sheet LOPAC_screen_w_protease, primary screen with protease, 5 µM, mean of two replicates) of -0.5647, a Replicate_1 (sheet LOPAC_screen_w_protease, primary screen with protease, 5 µM, replicate 1) of -0.1092 and a Replicate_2 (sheet LOPAC_screen_w_protease, primary screen with protease, 5 µM, replicate 2) of -1.02.
